Reference: patent US5475029A, “Farnesyl compounds as cholesterol lowering agents” (The Board of Trustees of the Leland Stanford Junior …, priority 1993, dated 1995)

Experiments:
Type in all cases: cell-based
HMGal [1] = experiment: HMGal synthesis rate ([35S]methionine incorporation); conditions: 10 μg/ml
Method: Measurement of HMGal and HMG-CoA Reductase Synthesis Rates Cells plated into 60×15 mm dishes were grown in 5% LPS MEM with 0.25 mg/ml active geneticin for 24 hours. These cells were washed with PBS and grown for 24 hours in 5% LPS MEM supplemented with 0.25 mg/ml active geneticin, 10 μM compactin and 0.1 mM mevalonate. After 24 hours, the medium was removed, the cells were washed with PBS and the medium was replaced with methionine-free MEM supplemented with 5% LPS, 250 μg/ml of active geneticin, 10 μM compactin, and 0.1 mM mevalonate. In addition, 20 mM mevalonate or 10 μg/ml farnesyl acetate was included in those plates previously treated with these compounds. […] Cells were washed, lysed and the HMGal and HMG-CoA reductase proteins were immunoprecipitated, subjected to SDS-PAGE and quantified. […]
Farnesyl compounds reduce translation and stimulate degradation of HMG-CoA reductase and HMGal A reduction in HMGal specific activity triggered by the farnesyl compounds could have been the result of a decrease in HMGal synthesis, an increase in HMGal degradation, or a combination of changes in both the synthesis and degradation rates. In order to test whether the farnesyl compounds impact synthesis, the rates of HMGal, HMG-CoA reductase, and total cellular protein synthesis were measured by [^35 S]methionine incorporation in the presence and absence of 10 μg/ml farnesyl acetate.

total cellular protein = experiment: Total cellular protein degradation; conditions: 10 μg/ml
Method: Measurement of HMGal and HMG-CoA Reductase Degradation Rates Cells grown in 60×15 mm dishes were washed once with ice-cold PBS and starved for 1 hour in 1 ml of methionine-free MEM supplemented with 5% LPS, 250 μg/ml of active geneticin, 10 μM compactin, and 0.1 mM mevalonate. These cells were radio-labeled for 2 hours in 300 μl of the methionine-free starvation medium containing 100 μCi of Tran^35 S-label (>1,000 Ci/mmol). Cells were incubated in an MEM-based chase medium containing 2 mM methionine, 5% LPS, 250 μg/ml of active geneticin, 10 μM compactin, and 0.1 mM mevalonate. During the chase period, some plates also had either 20 mM mevalonate, 10 μg/ml farnesyl acetate or 10 μg/ml ethyl farnesyl ether added to them as indicated in the figure legend. Following the chase, cells were washed, lysed and the HMGal and HMG-CoA reductase proteins were immunoprecipitated, subjected to SDS-PAGE and quantified.
In order to test whether the farnesyl compounds impact degradation, the rates of degradation for HMGal, HMG-CoA reductase, and total cellular protein were measured in the presence and absence of 10 μg/ml farnesyl acetate and ethyl farnesyl ether.

HMGal [2] = experiment: HMGal activity (in vitro β-galactosidase specific activity) in CHO-HMGal cells
Method: Cell Culture--All cells were grown as monolayers at 37° C. in an atmosphere of 5% CO2. CHO-HMGal cells were grown in minimal essential medium (MEM) supplemented with 0.25 mg/ml active geneticin and either 5% fetal calf serum (FCS) or 5% lipid-poor fetal calf serum (LPS).
Stock Solutions--Stock solutions of farnesyl acetate, ethyl farnesyl ether, and the mixture of 25-hydroxycholesterol with cholesterol were all made in 100% ethanol at 100 times the final concentration. In all experiments in which these compounds were used, there is a final concentration of 1% ethanol in the medium. For control, cells grown with "no additives" or "mevalonate" 100% ethanol was added to the medium to bring the final concentration of ethanol to 1%. The mevalonate stock solution was prepared at a concentration of 2M in 20 mM potassium phosphate buffer (pH 4.5).
β-galactosidase Specific Activity--In vitro β-galactosidase activity was measured using the substrate, o-nitrophenyl-β-D-galactopyranoside. Specific activities were calculated using protein concentration values.
Farnesyl acetate and ethyl farnesyl ether stimulate a reduction in HMGal activity--In an attempt to identify tile non-sterol metabolite(s) that triggers the down regulation of HMG-CoA reductase, five commercially available isoprenoid compounds were tested for their effects on HMGal activity in CHO-HMGal cells. Each of tile compounds tested closely resembled one of tile naturally occurring isoprenoid pyrophosphates, except that the pyrophosphate group had been replaced by either a hydroxyl or an […] group. The compounds tested included: 3-methyl-2-buten-1-ol, the alcohol of the five carbon isoprenoid-dimethylallyl pyrophosphate (a naturally occurring isomer of isopentenyl pyrophosphate); geraniol and geranyl acetate, the alcohol and the […] of the ten carbon isoprenoid-geranyl pyrophosphate; and farnesol and farnesyl acetate, the alcohol and the […] of the fifteen carbon isoprenoid-farnesyl pyrophosphate.
To confirm that the reduction in HMGal activity was the result of a regulatory function specifically targeting the membrane domain of HMGal, the effects of farnesyl acetate on β-galactosidase activity were measured in vitro for both CHO-HMGal cells and CHO-Gal cells. The CHO-Gal cells had been stably transfected with a construct identical to the HMGal construct (using the same vector, promoter, and 5' and 3' flanking regions) except that the construct in the CHO-Gal cells codes for a soluble β-galactosidase protein instead of the HMGal fusion protein with the membrane domain of HMG-CoA reductase. In this experiment, the CHO-Gal cells served to control for any artifacts farnesyl acetate might cause in the β-galactosidase assay or any nonspecific effects farnesyl acetate might have on the rates of protein synthesis or degradation.

## CC(=O)OCC=C(C)CCC=C(C)CCC=C(C)C [farnesyl acetate]
HMGal [1]
  reduction in the rate of HMGal synthesis: 80%
Total cellular protein
  effect on the degradation of total cellular protein: Neither farnesyl compound had a significant effect
HMGal [2]; 10 μg/ml, 24 hour treatment
  reduction of HMGal activity: 70%
HMGal [2]; 20 μg/ml
  reduction of HMGal activity: 80%
HMGal [2]; five isoprenoid compounds tested
  reduction in HMGal activity at concentrations below the levels toxic to the cells: stimulated a reduction in HMGal activity
